Laboratory results reported in ChEMBL document CHEMBL3769355, “Fragment-Based Design of Selective Nanomolar Ligands of the CREBBP Bromodomain” (J Med Chem, 2016).
Activity calls are given as the source filed them. The rule behind the calls is not given here.

Columns and labels:
CREB-binding protein [1] = target: T1, CREB-binding protein (Homo sapiens, UniProt Q92793); experiment: Binding affinity to human His-tagged CREBBP expressed in Escherichia coli BL21(DE3) cells at 100 uM by SYPRO orange staining based fluorescence thermal shift assay
CREB-binding protein [2] = target: T1, CREB-binding protein; experiment: Inhibition of human recombinant GST-tagged CREBBP using non acetylated ligand 1 as substrate incubated for 2 hrs by TR-FRET assay
Target sequence in this assay (Q92793 whole entry): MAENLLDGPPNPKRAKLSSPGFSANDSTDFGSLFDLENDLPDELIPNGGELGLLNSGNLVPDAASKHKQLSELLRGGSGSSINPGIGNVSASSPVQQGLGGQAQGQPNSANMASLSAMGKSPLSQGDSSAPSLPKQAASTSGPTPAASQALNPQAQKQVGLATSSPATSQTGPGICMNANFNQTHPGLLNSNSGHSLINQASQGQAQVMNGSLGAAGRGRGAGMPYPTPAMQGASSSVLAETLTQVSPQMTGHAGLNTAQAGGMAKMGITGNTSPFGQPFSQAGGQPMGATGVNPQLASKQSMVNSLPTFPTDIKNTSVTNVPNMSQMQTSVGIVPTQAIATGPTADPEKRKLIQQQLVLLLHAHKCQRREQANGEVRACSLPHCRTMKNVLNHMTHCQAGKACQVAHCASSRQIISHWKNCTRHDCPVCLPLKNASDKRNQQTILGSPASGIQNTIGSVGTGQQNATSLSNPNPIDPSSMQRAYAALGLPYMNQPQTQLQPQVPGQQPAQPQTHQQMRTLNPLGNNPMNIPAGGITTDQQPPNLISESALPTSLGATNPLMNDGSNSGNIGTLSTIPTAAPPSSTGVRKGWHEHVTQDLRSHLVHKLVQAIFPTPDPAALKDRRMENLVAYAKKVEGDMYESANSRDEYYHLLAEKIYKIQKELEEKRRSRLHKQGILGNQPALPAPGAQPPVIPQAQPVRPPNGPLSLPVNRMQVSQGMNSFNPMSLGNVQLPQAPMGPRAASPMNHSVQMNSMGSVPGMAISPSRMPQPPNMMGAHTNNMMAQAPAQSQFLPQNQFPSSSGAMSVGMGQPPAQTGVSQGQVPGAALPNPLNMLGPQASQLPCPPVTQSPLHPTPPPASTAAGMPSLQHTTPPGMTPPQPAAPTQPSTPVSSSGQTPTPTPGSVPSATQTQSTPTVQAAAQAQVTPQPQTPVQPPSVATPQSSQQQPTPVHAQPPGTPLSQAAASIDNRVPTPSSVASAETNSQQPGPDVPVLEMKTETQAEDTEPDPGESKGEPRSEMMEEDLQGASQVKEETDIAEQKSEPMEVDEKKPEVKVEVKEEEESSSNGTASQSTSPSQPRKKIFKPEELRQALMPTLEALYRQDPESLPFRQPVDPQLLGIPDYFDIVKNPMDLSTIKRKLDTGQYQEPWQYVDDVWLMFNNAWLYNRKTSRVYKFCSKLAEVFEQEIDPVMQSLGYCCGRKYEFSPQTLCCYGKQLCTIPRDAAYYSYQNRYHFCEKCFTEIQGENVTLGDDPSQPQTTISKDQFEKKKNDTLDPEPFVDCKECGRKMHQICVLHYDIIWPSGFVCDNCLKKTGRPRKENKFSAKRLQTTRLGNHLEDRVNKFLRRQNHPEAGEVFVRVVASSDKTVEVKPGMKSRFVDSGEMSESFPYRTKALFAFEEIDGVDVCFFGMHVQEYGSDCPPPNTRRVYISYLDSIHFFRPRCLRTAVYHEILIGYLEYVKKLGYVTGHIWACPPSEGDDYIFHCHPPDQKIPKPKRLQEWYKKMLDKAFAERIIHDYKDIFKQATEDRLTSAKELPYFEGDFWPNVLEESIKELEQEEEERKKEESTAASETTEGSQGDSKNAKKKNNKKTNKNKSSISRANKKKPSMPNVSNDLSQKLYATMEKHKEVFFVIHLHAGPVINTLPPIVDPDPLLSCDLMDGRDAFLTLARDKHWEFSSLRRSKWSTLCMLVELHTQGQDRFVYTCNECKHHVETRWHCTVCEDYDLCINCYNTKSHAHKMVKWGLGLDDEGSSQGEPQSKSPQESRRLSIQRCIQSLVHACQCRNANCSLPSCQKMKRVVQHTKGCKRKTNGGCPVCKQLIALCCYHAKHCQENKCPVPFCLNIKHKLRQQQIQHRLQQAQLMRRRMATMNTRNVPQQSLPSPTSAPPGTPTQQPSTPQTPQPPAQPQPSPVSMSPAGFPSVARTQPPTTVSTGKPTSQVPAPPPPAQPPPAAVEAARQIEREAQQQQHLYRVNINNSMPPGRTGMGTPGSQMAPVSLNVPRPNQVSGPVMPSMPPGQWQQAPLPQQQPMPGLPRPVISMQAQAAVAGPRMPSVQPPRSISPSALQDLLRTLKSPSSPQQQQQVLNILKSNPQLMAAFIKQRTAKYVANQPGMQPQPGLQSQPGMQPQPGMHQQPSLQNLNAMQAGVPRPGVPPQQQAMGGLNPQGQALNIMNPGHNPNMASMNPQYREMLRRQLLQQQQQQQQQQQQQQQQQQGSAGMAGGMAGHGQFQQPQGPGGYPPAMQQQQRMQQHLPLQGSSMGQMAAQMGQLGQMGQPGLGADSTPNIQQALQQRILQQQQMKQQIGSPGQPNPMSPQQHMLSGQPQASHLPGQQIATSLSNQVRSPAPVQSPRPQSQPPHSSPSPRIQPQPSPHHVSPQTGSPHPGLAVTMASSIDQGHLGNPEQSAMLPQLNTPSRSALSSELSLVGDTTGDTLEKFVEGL

ML-2 = experiment: (§1) Cytotoxicity against human ML2 cells assessed as growth inhibition after 48 hrs by resazurin assay; type: functional
CREB-binding protein [3] = target: T1, CREB-binding protein; experiment: Competitive binding affinity to human His-tagged CREBBP expressed in T7 phage-infected Escherichia coli BL21(DE3) cells incubated for 1 hr by bromoscan assay
Target sequence in this assay (Q92793 whole entry): as above

MOLM-13 = experiment: (§2) Cytotoxicity against human MOLM13 cells assessed as assessed as growth inhibition after 48 hrs by resazurin assay; type: functional
HL-60 = experiment: Cytotoxicity against human HL60 cells assessed as assessed as growth inhibition after 48 hrs by resazurin assay; type: functional, cell-based
[4] = target: Histone acetyltransferase p300 (Homo sapiens) (UniProt Q09472); experiment: Binding affinity to EP300 (unknown origin) at 100 uM by SYPRO orange staining based fluorescence thermal shift assay
[5] = target: T2, Bromodomain-containing protein 4 (Homo sapiens, UniProt O60885); experiment: Competitive binding affinity to human BRD4 bromodomain 2 expressed in T7 phage-infected Escherichia coli BL21(DE3) cells incubated for 1 hr by bromoscan assay
[6] = target: T3, Bromodomain-containing protein 2 (Homo sapiens, UniProt P25440); experiment: Competitive binding affinity to human BRD2 bromodomain 2 expressed in T7 phage-infected Escherichia coli BL21(DE3) cells incubated for 1 hr by bromoscan assay
T3 sequence (P25440 whole entry): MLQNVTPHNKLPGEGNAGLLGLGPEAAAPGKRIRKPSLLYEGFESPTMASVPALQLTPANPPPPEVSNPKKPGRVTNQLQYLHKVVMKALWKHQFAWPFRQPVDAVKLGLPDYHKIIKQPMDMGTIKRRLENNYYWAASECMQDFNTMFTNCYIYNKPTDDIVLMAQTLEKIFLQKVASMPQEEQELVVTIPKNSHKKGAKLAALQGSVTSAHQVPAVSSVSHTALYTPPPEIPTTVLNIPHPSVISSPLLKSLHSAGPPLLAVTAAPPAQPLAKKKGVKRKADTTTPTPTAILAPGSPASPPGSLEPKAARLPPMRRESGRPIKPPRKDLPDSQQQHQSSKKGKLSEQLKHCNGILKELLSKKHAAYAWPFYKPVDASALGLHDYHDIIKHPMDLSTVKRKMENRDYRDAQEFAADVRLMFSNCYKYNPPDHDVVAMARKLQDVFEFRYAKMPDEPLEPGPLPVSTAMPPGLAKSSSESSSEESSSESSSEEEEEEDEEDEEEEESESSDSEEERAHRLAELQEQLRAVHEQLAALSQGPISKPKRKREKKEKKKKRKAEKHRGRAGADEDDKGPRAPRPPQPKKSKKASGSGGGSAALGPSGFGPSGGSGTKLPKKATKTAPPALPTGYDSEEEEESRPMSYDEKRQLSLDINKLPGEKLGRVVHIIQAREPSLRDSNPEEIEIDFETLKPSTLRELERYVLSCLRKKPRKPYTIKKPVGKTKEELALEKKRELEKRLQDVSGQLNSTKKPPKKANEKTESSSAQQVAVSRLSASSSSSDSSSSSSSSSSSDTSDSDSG

[7] = target: T2, Bromodomain-containing protein 4; experiment: Binding affinity to human BRD4 bromodomain 1 expressed in Escherichia coli BL21(DE3) cells at 100 uM by SYPRO orange staining based fluorescence thermal shift assay
[8] = target: T3, Bromodomain-containing protein 2; experiment: Competitive binding affinity to human BRD2 bromodomain 1 expressed in T7 phage-infected Escherichia coli BL21(DE3) cells incubated for 1 hr by bromoscan assay
CREB-binding protein [9] = target: T1, CREB-binding protein; experiment: Binding affinity to human His-tagged CREBBP expressed in Escherichia coli BL21(DE3) cells by isothermal titration calorimetry
Target sequence in this assay (Q92793 whole entry): as the sequence (Q92793 whole entry) above

[10] = target: T2, Bromodomain-containing protein 4; experiment: Competitive binding affinity to human BRD4 bromodomain 1 expressed in T7 phage-infected Escherichia coli BL21(DE3) cells incubated for 1 hr by bromoscan assay
CREB-binding protein [11] = target: T1, CREB-binding protein; experiment: Competitive binding affinity to human His-tagged CREBBP expressed in T7 phage-infected Escherichia coli BL21(DE3) cells at 25 uM incubated for 1 hr by bromoscan assay relative to control
CREB-binding protein [12] = target: T1, CREB-binding protein; experiment: Competitive binding affinity to human His-tagged CREBBP expressed in T7 phage-infected Escherichia coli BL21(DE3) cells at 50 uM incubated for 1 hr by bromoscan assay relative to control
[13] = as §1; type: functional; conditions: ML-2, 48 h
[14] = as §2; type: functional; conditions: MOLM-13, 48 h
[15] = target: Histone acetyltransferase p300 (Homo sapiens) (UniProt Q09472); experiment: Binding affinity to EP300 (unknown origin) at 50 uM by SYPRO orange staining based fluorescence thermal shift assay
CREB-binding protein [16] = target: T1, CREB-binding protein; experiment: Binding affinity to human His-tagged CREBBP expressed in Escherichia coli BL21(DE3) cells at 50 uM by SYPRO orange staining based fluorescence thermal shift assay

Compound	ΔTm (CREB-binding protein [1])	IC50 (CREB-binding protein [2])	Kd (CREB-binding protein [3])	ΔTm [4]	growth inhibition (GI) (HL-60)	further results
CC(=O)c1ccc(F)c(NC(=O)/C=C/C(=O)O)c1	-0.1 °C	> 100 µM				
CCOc1ccc(C(C)=O)cc1NC(=O)c1cccc(-n2cnnn2)c1	3.3 °C	7.5 µM		2.6 °C		
CCOc1ccc(C(C)=O)cc1NC(=O)c1cccc(S(=O)(=O)Nc2ccccc2)c1	0 °C	> 10 µM		0 °C		
CC(=O)c1cccc(NC(=O)Cn2c(=O)c3ccccc3n3nc(C)cc23)c1						Activity (CREB-binding protein [11]): 22%
CC(=O)c1cccc(NC(=O)N2C[C@@H](C)O[C@@H](c3ccccc3)C2)c1						Activity (CREB-binding protein [12]): 9.4%
CC(=O)c1ccc(C)c(NC(=O)/C=C/C(=O)O)c1	0.2 °C	> 100 µM				
COc1ccc(C(C)=O)cc1NC(=O)/C=C/C(=O)O	1.1 °C	60 µM				
CCOc1ccc(C(C)=O)cc1NC(=O)C1CC1C(=O)O (stereo unspecified)	1.1 °C	> 100 µM				
CC(=O)c1cccc(NC(=O)c2c(-n3cnnn3)sc(C)c2C)c1			29 µM			Activity (CREB-binding protein [11]): 2%
CC(=O)c1cccc(NC(=O)/C=C/C(=O)O)c1	0.1 °C	30 µM				
CC(=O)c1ccc(N2CCOCC2)c(NC(=O)c2cccc(C(=O)O)c2)c1	1.4 °C			1.3 °C		
CCOc1ccc(C(C)=O)cc1NC(=O)c1cc(COC2CCCCO2)cc(C(=O)O)c1 (stereo unspecified)	6 °C	1 µM	0.37 µM	5.9 °C	Active	GI50 [13]: 14.4 µM; GI50 [14]: 5.3 µM; ΔTm [7]: 1.7 °C
CCOc1ccc(C(C)=O)cc1NC(=O)/C=C/C(=O)O	1.8 °C		4.7 µM			Activity (CREB-binding protein [12]): 2.5%

More lines, main results first:

ΔTm (CREB-binding protein [1])	IC50 (CREB-binding protein [2])	Kd (CREB-binding protein [3])	ΔTm [4]	Compound	growth inhibition (GI) (HL-60)	further results
3.4 °C		2.5 µM		CCOc1ccc(C(C)=O)cc1C(=O)Nc1cccc(C(=O)O)c1	Active	growth inhibition (GI) (ML-2): Active; growth inhibition (GI) (MOLM-13): Active
5.2 °C	1 µM	0.17 µM	5.9 °C	CCOc1ccc(C(C)=O)cc1NC(=O)c1cc(C(=O)O)cc(-c2ccoc2)c1	Active	Kd [5]: > 36 µM; growth inhibition (GI) (ML-2): Active; growth inhibition (GI) (MOLM-13): Active; Kd [6]: 24 µM; ΔTm [7]: 1.5 °C; Kd [8]: 24 µM; Kd (CREB-binding protein [9]): 0.3 µM; Kd [10]: 9.8 µM
3.8 °C	7.4 µM		3.4 °C	CCCOc1ccc(C(C)=O)cc1NC(=O)c1cccc(C(=O)O)c1	Active	growth inhibition (GI) (ML-2): Active; growth inhibition (GI) (MOLM-13): Active
3.5 °C			3 °C	CC(=O)c1ccc(OCC(C)C)c(NC(=O)c2cccc(C(=O)O)c2)c1	Active	growth inhibition (GI) (ML-2): Active; growth inhibition (GI) (MOLM-13): Active
3.8 °C	8.7 µM	0.67 µM	3.4 °C	CCOc1ccc(C(C)=O)cc1NC(=O)c1cccc(C(=O)O)c1	Active	Kd [5]: > 50 µM; growth inhibition (GI) (ML-2): Active; growth inhibition (GI) (MOLM-13): Active; Kd [6]: > 50 µM; ΔTm [7]: 0.4 °C; Kd [8]: > 50 µM; Kd (CREB-binding protein [9]): 2 µM; Kd [10]: > 50 µM
1.9 °C	64 µM			CCOc1ccc(C(C)=O)cc1NC(=O)c1ccccc1C(=O)O		
2.8 °C	5 µM	0.49 µM		CCOc1ccc(C(C)=O)cc1NC(=O)c1cccc(C(=O)OC)c1		
3.8 °C	3 µM		3.7 °C	CCOc1ccc(C(C)=O)cc1NC(=O)c1cc(CO)cc(C(=O)O)c1	Active	growth inhibition (GI) (ML-2): Active; growth inhibition (GI) (MOLM-13): Active
1.1 °C		37 µM		CCOc1ccc(C(=O)NC)cc1NC(=O)c1cccc(C(=O)O)c1		
5.1 °C	2 µM	0.53 µM	4.6 °C	CCOc1ccc(C(C)=O)cc1NC(=O)c1cc(COC)cc(C(=O)O)c1	Active	Kd [5]: > 50 µM; growth inhibition (GI) (ML-2): Active; growth inhibition (GI) (MOLM-13): Active; Kd [6]: > 50 µM; ΔTm [7]: 1.3 °C; Kd [8]: > 50 µM; Kd (CREB-binding protein [9]): 0.8 µM; Kd [10]: 25 µM
	3 µM			CCOc1ccc(C(C)=O)cc1NC(=O)c1cc(C(=O)O)cc(-c2ccncc2)c1		ΔTm [15]: 3.9 °C; ΔTm (CREB-binding protein [16]): 4.1 °C
3.1 °C	15 µM		3.1 °C	CC(=O)c1ccc(C2CC2)c(NC(=O)c2cccc(C(=O)O)c2)c1		
3.3 °C			2.6 °C	CC(=O)c1ccc(OCc2ccccc2)c(NC(=O)c2cccc(C(=O)O)c2)c1		
0.5 °C			0.4 °C	CCOc1ccc(C(C)=O)cc1NC(=O)c1cccc(NS(=O)(=O)c2ccccc2)c1		
3.4 °C			3.6 °C	CC(=O)c1ccc(OCC2CC2)c(NC(=O)c2cccc(C(=O)O)c2)c1	Active	growth inhibition (GI) (ML-2): Active; growth inhibition (GI) (MOLM-13): Active
